Test system: Carbonic anhydrase II enzyme
Assay: SPR single injection competitive binding analysis of CBS in the presence of Furosemide
Description: The binding interaction analysis was carried out using a SPR cell having a sensing region wherein the bound ligand is Carbonic anhydrase II enzyme immobilized on the surface of the biosensor via amine coupling to ˜6500 RU. […] According to the method described above, the dispersion gradient was prepared by initially aspirating, pulling, the Furosemide into the sample holding line followed by pulling the buffer into the sample holding line. […] The dispersion gradient of CBS was prepared using 200 μl of a 2 μM of CBS and 100 μl of buffer. The dispersion gradient of CBS in buffer was prepared by initially aspirating the CBS into the sample holding line followed by pulling the buffer into the sample holding line. The resulting dispersion gradient was immediately injected at a flow rate of 50 μl/min through the SPR sensing region containing the bound ligand.
FIGS. 16-18 will be referenced with regard to the method of determining binding competitive analysis. FIG. 16 reflects the relative concentrations of analyte when performing a binding competition analysis.
In contrast, the relative concentration of CBS will increase as a dispersion gradient during the competitive analysis.
The binding response curves of FIG. 17 were prepared by injecting two samples. […]

binding of CBS to the ligand in the presence of Furosemide (subtracted binding interaction curves, FIG. 18) (immobilized Carbonic anhydrase II, constant Furosemide, CBS dispersion gradient, Furosemide control curve subtracted): no binding
Structure (SMILES): NS(=O)(=O)c1ccc(C(=O)O)cc1 [CBS, 4-carboxy-benzenesulfonamide]
qualitative analysis of binding interaction curve of CBS/Furosemide dispersion gradient (FIG. 17, lines 1 and 3) (no control subtraction, curve remains substantially steady state): does not compete and does not contribute to the binding interaction

From patent US10564093B2, “Single injection competition assays” (Molecular Devices, LLC, priority 2015, dated 2020)
